In brackets after ≈: the same amount, converted by molar mass.
Columns and labels:
Experiment in all cases: in vitro antibacterial evaluation, MIC by broth dilution
Assay type in all cases: cell-based
Streptococcus sp. = details: broth dilution, 18 hours at 35° C.
Summary of the method: (§1)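 Step 1: dilute antibiotic across 64-0.06 μg/mL in Muller-Hinton II […]. Step 2: inoculate at 5×10^5 CFU/mL.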

Escherichia coli = details: 18 hours at 35° C., strain ATCC 25922
Summary of the method: as §1

Enterococcus sp. = details: broth dilution, 18 hours at 35° C.
Summary of the method: as §1

Staphylococcus sp. = details: broth dilution, 18 hours at 35° C.
Summary of the method: as §1

[1] = Streptococcus agalactiae (GC 4564)
[2] = Streptococcus pneumoniae (GC 4565)
[3] = Streptococcus pyogenes (ID-3187)
[4] = Enterococcus faecalis (ATCC 29212)
[5] = Enterococcus faecalis (GC 2242)
[6] = Enterococcus faecalis (GC 4552)
[7] = Enterococcus faecalis (GC 4553)
[8] = Enterococcus faecalis (GC 4554)
[9] = inoculum 5×10^5 CFU/mL, strain GC 1131

CCCCCC1OCC2OC(OC3C(CO)OC(Oc4ccc(CC5NC(=O)C(C(C)c6ccccc6)NC(=O)CNC(=O)C(CO)NC(=O)C(C(O)C6CNC(=N)N6C6OC(CO)C(O)C(O)C6O)NC(=O)C(C(O)C6CNC(=N)N6)NC5=O)cc4)C(O)C3O)C(O)C(O)C2O1 (stereo not drawn) [Example 108, Cyclo[glycyl-β-methylphenylalanyl-O-[4-O-(4,6-O-hexylidenehexopyranosyl)hexopyranosyl]-tyrosyl-3-(2-iminoimidazolidin-4-yl)seryl-3-(3-hexopyranosyl-2-iminoimidazolidin-4-yl)-serylseryl]]
MIC Streptococcus agalactiae (GC 4564) (Streptococcus sp.; [1]): <0.5 µg/mL
MIC Streptococcus pneumoniae (GC 4565) (Streptococcus sp.; [2]): <0.5 µg/mL
MIC Streptococcus pyogenes (ID-3187) (Streptococcus sp.; [3]): <0.5 µg/mL
MIC Streptococcus agalactiae (GC 4564) (Streptococcus sp.; strain GC 4564): <0.5 µg/mL
MIC Streptococcus pneumoniae (GC 4565) (Streptococcus sp.; strain GC 4565): <0.5 µg/mL
MIC Streptococcus pyogenes (ID-3187) (Streptococcus sp.; strain ID-3187): <0.5 µg/mL
MIC Escherichia coli (ATCC 25922) (Escherichia coli): 32 µg/mL (≈ 23.2 µM)
MIC Enterococcus avium (GC 4558) (Enterococcus sp.; Enterococcus avium (GC 4558)): 2 µg/mL (≈ 1.45 µM)
MIC Enterococcus faecalis (ATCC 29212) (Enterococcus sp.; [4]): 2 µg/mL (≈ 1.45 µM)
MIC Enterococcus faecalis (GC 2242) (Enterococcus sp.; [5]): 2 µg/mL (≈ 1.45 µM)
MIC Enterococcus faecalis (GC 4552) (Enterococcus sp.; [6]): 2 µg/mL (≈ 1.45 µM)
MIC Enterococcus faecalis (GC 4553) (Enterococcus sp.; [7]): 2 µg/mL (≈ 1.45 µM)
MIC Enterococcus faecalis (GC 4554) (Enterococcus sp.; [8]): 2 µg/mL (≈ 1.45 µM)
MIC Enterococcus faecium (GC 2243) (Enterococcus sp.; Enterococcus faecium (GC 2243)): 2 µg/mL (≈ 1.45 µM)
MIC Enterococcus faecium (GC 4556) (Enterococcus sp.; Enterococcus faecium (GC 4556)): 2 µg/mL (≈ 1.45 µM)
MIC Enterococcus faecium (GC 4557) (Enterococcus sp.; Enterococcus faecium (GC 4557)): 1 µg/mL (≈ 0.726 µM)
MIC Enterococcus faecalis (ATCC 29212) (Enterococcus sp.; strain ATCC 29212): 2 µg/mL (≈ 1.45 µM)
MIC Enterococcus faecalis (GC 2242) (Enterococcus sp.; strain GC 2242): 2 µg/mL (≈ 1.45 µM)
MIC Enterococcus faecium (GC 2243) (Enterococcus sp.; strain GC 2243): 2 µg/mL (≈ 1.45 µM)
MIC Enterococcus faecalis (GC 4552) (Enterococcus sp.; strain GC 4552): 2 µg/mL (≈ 1.45 µM)
MIC Enterococcus faecalis (GC 4553) (Enterococcus sp.; strain GC 4553): 2 µg/mL (≈ 1.45 µM)
MIC Enterococcus faecalis (GC 4554) (Enterococcus sp.; strain GC 4554): 2 µg/mL (≈ 1.45 µM)
MIC Enterococcus faecium (GC 4556) (Enterococcus sp.; strain GC 4556): 2 µg/mL (≈ 1.45 µM)
MIC Enterococcus faecium (GC 4557) (Enterococcus sp.; strain GC 4557): 1 µg/mL (≈ 0.726 µM)
MIC Enterococcus avium (GC 4558) (Enterococcus sp.; strain GC 4558): 2 µg/mL (≈ 1.45 µM)
MIC Coagulase Negative Staphylococcus (GC 4547) (Staphylococcus sp.): 1 µg/mL (≈ 0.726 µM)
MIC Coagulase Negative Staphylococcus (GC 4548) (Staphylococcus sp.): <0.5 µg/mL
MIC Coagulase Negative Staphylococcus (GC 4549) (Staphylococcus sp.): 1 µg/mL (≈ 0.726 µM)
MIC Coagulase Negative Staphylococcus (GC 4551) (Staphylococcus sp.): 1 µg/mL (≈ 0.726 µM)
MIC Coagulase Negative Staphylococcus (ID-3941) (Staphylococcus sp.): 1 µg/mL (≈ 0.726 µM)
MIC Staphylococcus aureus (ATCC 29213) (Staphylococcus sp.): 1 µg/mL (≈ 0.726 µM)
MIC Staphylococcus aureus (GC 1131) (Staphylococcus sp.): 1 µg/mL (≈ 0.726 µM)
MIC Staphylococcus aureus (GC 4541) (Staphylococcus sp.): 1 µg/mL (≈ 0.726 µM)
MIC Staphylococcus aureus (GC 4542) (Staphylococcus sp.): 1 µg/mL (≈ 0.726 µM)
MIC Staphylococcus aureus (GC 4544) (Staphylococcus sp.): 1 µg/mL (≈ 0.726 µM)
MIC Staphylococcus aureus (GC 4545) (Staphylococcus sp.): 1 µg/mL (≈ 0.726 µM)
MIC Staphylococcus aureus-SMITH (GC 4543) (Staphylococcus sp.): 1 µg/mL (≈ 0.726 µM)
MIC Staphylococcus haemolyticus (GC 4546) (Staphylococcus sp.): 1 µg/mL (≈ 0.726 µM)
MIC Staphylococcus aureus (GC 1131) (Staphylococcus sp.; [9]): 1 µg/mL (≈ 0.726 µM)
MIC Staphylococcus aureus (ATCC 29213) (Staphylococcus sp.; strain ATCC 29213): 1 µg/mL (≈ 0.726 µM)
MIC Staphylococcus aureus (GC 4541) (Staphylococcus sp.; strain GC 4541): 1 µg/mL (≈ 0.726 µM)
MIC Staphylococcus aureus (GC 4542) (Staphylococcus sp.; strain GC 4542): 1 µg/mL (≈ 0.726 µM)
MIC Staphylococcus aureus (GC 4544) (Staphylococcus sp.; strain GC 4544): 1 µg/mL (≈ 0.726 µM)
MIC Staphylococcus aureus (GC 4545) (Staphylococcus sp.; strain GC 4545): 1 µg/mL (≈ 0.726 µM)
MIC Staphylococcus haemolyticus (GC 4546) (Staphylococcus sp.; strain GC 4546): 1 µg/mL (≈ 0.726 µM)
MIC Coagulase Negative Staphylococcus (GC 4547) (Staphylococcus sp.; strain GC 4547): 1 µg/mL (≈ 0.726 µM)
MIC Coagulase Negative Staphylococcus (GC 4548) (Staphylococcus sp.; strain GC 4548): <0.5 µg/mL
MIC Coagulase Negative Staphylococcus (GC 4549) (Staphylococcus sp.; strain GC 4549): 1 µg/mL (≈ 0.726 µM)
MIC Coagulase Negative Staphylococcus (GC 4551) (Staphylococcus sp.; strain GC 4551): 1 µg/mL (≈ 0.726 µM)
MIC Coagulase Negative Staphylococcus (ID-3941) (Staphylococcus sp.; strain ID-3941): 1 µg/mL (≈ 0.726 µM)
MIC Staphylococcus aureus-SMITH (GC 4543) (Staphylococcus sp.; strain SMITH GC 4543): 1 µg/mL (≈ 0.726 µM)

CC(C)CC1OCC2OC(OC3C(CO)OC(Oc4ccc(CC5NC(=O)C(C(C)c6ccccc6)NC(=O)CNC(=O)C(CO)NC(=O)C(C(O)C6CNC(=N)N6C6OC(CO)C(O)C(O)C6O)NC(=O)C(C(O)C6CNC(=N)N6)NC5=O)cc4)C(O)C3O)C(O)C(O)C2O1 (stereo not drawn) [Example 107, Cyclo[glycyl-β-methylphenylalanyl-O-[4-O-[4,6-O-(3-methylbutylidene)hexopyranosyl]-hexopyranosyl]tyrosyl-3-(2-iminoimidazolidin-4-yl)seryl-3-(3-hexopyranosyl-2-iminoimidazolidin-4-yl)serylseryl]]
MIC Streptococcus agalactiae (GC 4564) (Streptococcus sp.; [1]): 0.25 µg/mL (≈ 0.183 µM)
MIC Streptococcus pneumoniae (GC 4565) (Streptococcus sp.; [2]): <0.12 µg/mL
MIC Streptococcus pyogenes (ID-3187) (Streptococcus sp.; [3]): 0.25 µg/mL (≈ 0.183 µM)
MIC Streptococcus agalactiae (GC 4564) (Streptococcus sp.; strain GC 4564): 0.25 µg/mL (≈ 0.183 µM)
MIC Streptococcus pneumoniae (GC 4565) (Streptococcus sp.; strain GC 4565): <0.12 µg/mL
MIC Streptococcus pyogenes (ID-3187) (Streptococcus sp.; strain ID-3187): 0.25 µg/mL (≈ 0.183 µM)
MIC Escherichia coli (ATCC 25922) (Escherichia coli): 64 µg/mL (≈ 46.9 µM)
MIC Enterococcus avium (GC 4558) (Enterococcus sp.; Enterococcus avium (GC 4558)): 8 µg/mL (≈ 5.87 µM)
MIC Enterococcus faecalis (ATCC 29212) (Enterococcus sp.; [4]): 4 µg/mL (≈ 2.93 µM)
MIC Enterococcus faecalis (GC 2242) (Enterococcus sp.; [5]): 4 µg/mL (≈ 2.93 µM)
MIC Enterococcus faecalis (GC 4552) (Enterococcus sp.; [6]): 4 µg/mL (≈ 2.93 µM)
MIC Enterococcus faecalis (GC 4553) (Enterococcus sp.; [7]): 8 µg/mL (≈ 5.87 µM)
MIC Enterococcus faecalis (GC 4554) (Enterococcus sp.; [8]): 4 µg/mL (≈ 2.93 µM)
MIC Enterococcus faecium (GC 2243) (Enterococcus sp.; Enterococcus faecium (GC 2243)): 8 µg/mL (≈ 5.87 µM)
MIC Enterococcus faecium (GC 4556) (Enterococcus sp.; Enterococcus faecium (GC 4556)): 4 µg/mL (≈ 2.93 µM)
MIC Enterococcus faecium (GC 4557) (Enterococcus sp.; Enterococcus faecium (GC 4557)): 2 µg/mL (≈ 1.47 µM)
MIC Enterococcus faecalis (ATCC 29212) (Enterococcus sp.; strain ATCC 29212): 4 µg/mL (≈ 2.93 µM)
MIC Enterococcus faecalis (GC 2242) (Enterococcus sp.; strain GC 2242): 4 µg/mL (≈ 2.93 µM)
MIC Enterococcus faecium (GC 2243) (Enterococcus sp.; strain GC 2243): 8 µg/mL (≈ 5.87 µM)
MIC Enterococcus faecalis (GC 4552) (Enterococcus sp.; strain GC 4552): 4 µg/mL (≈ 2.93 µM)
MIC Enterococcus faecalis (GC 4553) (Enterococcus sp.; strain GC 4553): 8 µg/mL (≈ 5.87 µM)
MIC Enterococcus faecalis (GC 4554) (Enterococcus sp.; strain GC 4554): 4 µg/mL (≈ 2.93 µM)
MIC Enterococcus faecium (GC 4556) (Enterococcus sp.; strain GC 4556): 4 µg/mL (≈ 2.93 µM)
MIC Enterococcus faecium (GC 4557) (Enterococcus sp.; strain GC 4557): 2 µg/mL (≈ 1.47 µM)
MIC Enterococcus avium (GC 4558) (Enterococcus sp.; strain GC 4558): 8 µg/mL (≈ 5.87 µM)
MIC Coagulase Negative Staphylococcus (GC 4547) (Staphylococcus sp.): 1 µg/mL (≈ 0.733 µM)
MIC Coagulase Negative Staphylococcus (GC 4548) (Staphylococcus sp.): 1 µg/mL (≈ 0.733 µM)
MIC Coagulase Negative Staphylococcus (GC 4549) (Staphylococcus sp.): 1 µg/mL (≈ 0.733 µM)
MIC Coagulase Negative Staphylococcus (GC 4551) (Staphylococcus sp.): 1 µg/mL (≈ 0.733 µM)
MIC Coagulase Negative Staphylococcus (ID-3941) (Staphylococcus sp.): 1 µg/mL (≈ 0.733 µM)
MIC Staphylococcus aureus (ATCC 29213) (Staphylococcus sp.): 1 µg/mL (≈ 0.733 µM)
MIC Staphylococcus aureus (GC 1131) (Staphylococcus sp.): 2 µg/mL (≈ 1.47 µM)
MIC Staphylococcus aureus (GC 4541) (Staphylococcus sp.): 2 µg/mL (≈ 1.47 µM)
MIC Staphylococcus aureus (GC 4542) (Staphylococcus sp.): 1 µg/mL (≈ 0.733 µM)
MIC Staphylococcus aureus (GC 4544) (Staphylococcus sp.): 2 µg/mL (≈ 1.47 µM)
MIC Staphylococcus aureus (GC 4545) (Staphylococcus sp.): 1 µg/mL (≈ 0.733 µM)
MIC Staphylococcus aureus-SMITH (GC 4543) (Staphylococcus sp.): 1 µg/mL (≈ 0.733 µM)
MIC Staphylococcus haemolyticus (GC 4546) (Staphylococcus sp.): 1 µg/mL (≈ 0.733 µM)
MIC Staphylococcus aureus (GC 1131) (Staphylococcus sp.; [9]): 2 µg/mL (≈ 1.47 µM)
MIC Staphylococcus aureus (ATCC 29213) (Staphylococcus sp.; strain ATCC 29213): 1 µg/mL (≈ 0.733 µM)
MIC Staphylococcus aureus (GC 4541) (Staphylococcus sp.; strain GC 4541): 2 µg/mL (≈ 1.47 µM)
MIC Staphylococcus aureus (GC 4542) (Staphylococcus sp.; strain GC 4542): 1 µg/mL (≈ 0.733 µM)
MIC Staphylococcus aureus (GC 4544) (Staphylococcus sp.; strain GC 4544): 2 µg/mL (≈ 1.47 µM)
MIC Staphylococcus aureus (GC 4545) (Staphylococcus sp.; strain GC 4545): 1 µg/mL (≈ 0.733 µM)
MIC Staphylococcus haemolyticus (GC 4546) (Staphylococcus sp.; strain GC 4546): 1 µg/mL (≈ 0.733 µM)
MIC Coagulase Negative Staphylococcus (GC 4547) (Staphylococcus sp.; strain GC 4547): 1 µg/mL (≈ 0.733 µM)
MIC Coagulase Negative Staphylococcus (GC 4548) (Staphylococcus sp.; strain GC 4548): 1 µg/mL (≈ 0.733 µM)
MIC Coagulase Negative Staphylococcus (GC 4549) (Staphylococcus sp.; strain GC 4549): 1 µg/mL (≈ 0.733 µM)
MIC Coagulase Negative Staphylococcus (GC 4551) (Staphylococcus sp.; strain GC 4551): 1 µg/mL (≈ 0.733 µM)
MIC Coagulase Negative Staphylococcus (ID-3941) (Staphylococcus sp.; strain ID-3941): 1 µg/mL (≈ 0.733 µM)
MIC Staphylococcus aureus-SMITH (GC 4543) (Staphylococcus sp.; strain SMITH GC 4543): 1 µg/mL (≈ 0.733 µM)
